Test results from US20140261474A1, “METHODS FOR INHALATION OF SMOKE-FREE NICOTINE” (priority 2013, published 2014).
Read-outs that look alike come from different tables or passages of the source.

How the values were obtained:
[1] = test system: healthy volunteers (two ex-smokers and one non-smoker); details: in vivo
[2] = from cigarettes containing 6 to 11 mg of nicotine; cited from earlier work
smokers = details: nicotine containing droplets delivered to the alveolar region; cited from earlier work

SMILES: CN1CCCC1c1cccnc1.O=C(O)C(O)C(O)C(=O)O (stereo not shown) [Nicotine Bitartrate, Nicotine bitartrate]
- Adverse effects ([1]; pH 2.9): Slight
- Comment (sensory perceptions and effects) ([1]; pH 3): No taste, buzz
- Adverse effects ([1]; pH 3.2): Slight
- Comment (sensory perceptions and effects) ([1]; pH 3.2): No taste, buzz
- Presence/Intensity of “buzz” ([1]; pH 3.2): None

SMILES: CN1CCC[C@H]1c1cccnc1 [nicotine, S-3-(1-methyl-2-pyrrolidinyl)pyridine]
- nicotine the smoker typically absorbs [2]: 1 to 3 mg
- craving for cigarettes (smokers): very rapid and sustained reduction of craving for cigarettes
